Legend:
Assay type in all cases: physicochemical
[1] = Example 22: competitive release of para-nitrophenol from an approximately equimolar solution of 4-nitrophenyl-O-β-D- and -O-α-D-3′-ketoglucopyranoside, 32° C., 1H NMR integrals
Source text: In this example the competitive rate of release of para-nitrophenol from an approximately equimolar solution of (2R,5S,6S)-3,5-dihydroxy-2-(hydroxymethyl)-6-(4-nitrophenoxy)tetrahydro-4H-pyran-4-one (4-nitrophenyl-O-β-D-3′-ketoglucopyranoside) and (2R,5S,6S)-3,5-dihydroxy-2-(hydroxymethyl)-6-(4-nitrophenoxy)tetrahydro-4H-pyran-4-one (4-nitrophenyl-O-α-D-3′-ketoglucopyranoside) in D2O containing 1.5% D6-DMSO or in 0.1 M deuterated phosphate buffer, pH 5.8 containing 1.5% D6-DMSO or in D2O was determined.
A solution containing approximately 2 mg each of 4-nitrophenyl-O-β-D-3′-ketoglucopyranoside and 4-nitrophenyl-O-α-D-3′-ketoglucopyranoside was prepared in 1 mL of D2O containing 3.3% v/v D6-DMSO. To two 0.375 mL portions of the resultant solution was added either D2O (0.5 mL) or 0.1M sodium phosphate buffer, pH 5.8 (0.5 mL) to given reactions 1 and 2 respectively. The resultant mixtures were analysed by ^1H NMR directly following preparation then incubated at 32° C./80 rpm and periodically analysed by ^1H NMR at recorded time points.
The change in the ratio between the integrals of the anomeric protons of each ketoglucoside and between the were sum of the anomeric protons and the anomeric protons of each ketoglucoside with time are shown in Table IX: […]

[2] = Example 25: release of geraniol from geranyl-O-β-D-2′-acetamido-2′-deoxy-3′-keto-glucopyranoside vs geranyl-β-2′-acetamido-2′-deoxy-glucopyranoside, 0.1 M deuterated phosphate buffer or D2O, 33% D6-DMSO, 32° C.; settings: for stability / geraniol release (in words): 32° C.
Source text: In this example the rate of release of geraniol from N-((2R,3S,5R,6R)-2-(((E)-3,7-dimethylocta-2,6-dien-1-yl)oxy)-5-hydroxy-6-(hydroxymethyl)-4-oxotetrahydro-2H-pyran-3-yl)acetamide (geranyl-O-β-D-2′-acetamido-2′-deoxy-3′-keto-glucopyranoside) vs. N-((2R,3R,4R,5S,6R)-2-(((E)-3,7-dimethylocta-2,6-dien-1-yl)oxy)-4,5-dihydroxy-6-(hydroxymethyl)tetrahydro-2H-pyran-3-yl)acetamide (geranyl-R-2′-acetamido-2′-deoxy-glucopyranoside) in D2O containing 33% D6-DMSO or in 0.1 M deuterated phosphate buffer solutions of differing pH containing 33% D6-DMSO or in D2O was determined.
(§1) 0.1 M of pH 5.8 and 7.4 stock buffered solutions of sodium dihydrogen phosphate and disodium hydrogen phosphate were prepared in deuterated water (D2O).
A stock solution of 25 mg of geranyl-O-β-D-2′-acetamido-2′-deoxy-3′-keto-glucopyranoside in 1.0 mL of D6-DMSO were prepared.
To four parallel reaction vials, where indicated in the reaction table below, was added 0.20 mL of the glycoside substrate solutions in D6-DMSO and 0.40 mL of low or high pH 0.1M phosphate buffer in D2O and the mixtures incubated by shaking at 32° C. After times indicated in table below, the mixtures where analysed by ^1H-NMR in a 400 MHz instrument.

[3] = Example 24: release of geraniol from geranyl-3′-keto-2′-deoxyglucopyranoside vs 2′-deoxyglucopyranoside, 0.1 M deuterated phosphate buffer or D2O, 50% D6-DMSO, 32° C.
Method: In this example the rate of release of geraniol from (2R,3R)-6-(((E)-3,7-dimethylocta-2,6-dien-1-yl)oxy)-3-hydroxy-2-(hydroxymethyl)tetrahydro-4H-pyran-4-one in (geranyl-3′-keto-2′-deoxyglucopyranoside) 0.1 M deuterated phosphate buffer solutions of differing pH containing 50% D6-DMSO was determined.
as §1
A stock solution of 15 mg of geraniol-O-β-D-3′-keto-2′-deoxyglucopyranoside in 1.5 mL of D6-DMSO were prepared.
(§2) After times indicated in table below, the mixtures where analysed by ^1H-NMR in a 400 MHz instrument.

[4] = Example 23: release of methanol from methyl-O-α-D-3′-ketomannopyranoside vs methyl-O-α-D-mannopyranoside, 0.1 M deuterated phosphate buffer or D2O, 15% D6-DMSO, 32° C.
Method: In this example the rate of release of methanol from (2R,3R,5R,6S)-3,5-dihydroxy-2-(hydroxymethyl)-6-methoxytetrahydro-4H-pyran-4-one (methyl-O-α-D-3′-ketomannopyranoside) vs. (2R,3S,4S,5S,6S)-2-(hydroxymethyl)-6-methoxytetrahydro-2H-pyran-3,4,5-triol (methyl-O-α-D-mannopyranoside) in D2O containing 15% D6-DMSO or in 0.1 M deuterated phosphate buffer solutions of differing pH containing 15% D6-DMSO or in D2O was determined.
as §1
A stock solution of 25 mg of methyl-O-α-D-3′-ketoglucomannoside in 1.0 mL of D6-DMSO were prepared.
as §2

[5] = Reaction 2, 0.1M sodium phosphate buffer, pH 5.8, 0 h
[6] = Reaction 2, 0.1M sodium phosphate buffer, pH 5.8, 20 h
[7] = Reaction 2, 0.1M sodium phosphate buffer, pH 5.8, 45 h

For `O=C1[C@@H](O)[C@@H](Oc2ccc([N+](=O)[O-])cc2)O[C@H](CO)[C@H]1O`, the “ratio of the sum of aromatic/α-ketoglucoside proton integrals” value ([1]; Reaction 1, D2O, 0 h) was 6.9, the “ratio of α-/β-ketoglucoside proton integrals” value ([1]; Reaction 1, D2O, 0 h) was 1.0 and the “ratio of the sum of aromatic/α-ketoglucoside proton integrals” value ([1]; Reaction 1, D2O, 20 h) was 7.1. For the same compound, the “ratio of α-/β-ketoglucoside proton integrals” value ([1]; Reaction 1, D2O, 20 h) was 1.2, the “ratio of the sum of aromatic/α-ketoglucoside proton integrals” value ([1]; Reaction 1, D2O, 45 h) was 6.8 and the “ratio of α-/β-ketoglucoside proton integrals” value ([1]; Reaction 1, D2O, 45 h) was 1.3. The “ratio of α-/β-ketoglucoside proton integrals” value ([1]; Reaction 1, D2O, 72 h) was 1.3, the “ratio of the sum of aromatic/α-ketoglucoside proton integrals” value ([1]; Reaction 1, D2O, 143 h) was 6.2 and the “ratio of the sum of aromatic/α-ketoglucoside proton integrals” value [1, 5] was 5.7. For the same compound, the “ratio of α-/β-ketoglucoside proton integrals” value [1, 5] was 1.2, the “ratio of the sum of aromatic/α-ketoglucoside proton integrals” value [1, 6] was 9.3 and the “ratio of α-/β-ketoglucoside proton integrals” value [1, 6] was 0.8. The “ratio of the sum of aromatic/α-ketoglucoside proton integrals” value [1, 7] was 14.2, the “ratio of α-/β-ketoglucoside proton integrals” value [1, 7] was 0.7 and the “ratio of α-/β-ketoglucoside proton integrals” value ([1]; Reaction 2, 0.1M sodium phosphate buffer, pH 5.8, 72 h) was 0.35. The “ratio of the sum of aromatic/α-ketoglucoside proton integrals” value ([1]; Reaction 2, 0.1M sodium phosphate buffer, pH 5.8, 143 h) was 30.2.

For `CC(=O)N[C@H]1[C@H](OC/C=C(\C)CCC=C(C)C)O[C@H](CO)[C@@H](O)[C@@H]1O` [N-((2R,3R,4R,5S,6R)-2-(((E)-3,7-dimethylocta-2,6-dien-1-yl)oxy)-4,5-dihydroxy-6-(hydroxymethyl)tetrahydro-2H-pyran-3-yl)acetamide, reference compound], the “stability / geraniol release (in words)” value [2] was “remains stable at pH 7.4”, the “% Conversion by 1H-NMR” value ([2]; pH 7.4, 0 h) was 0% and the “% Conversion by 1H-NMR” value ([2]; pH 7.4, 1.5 h) was 0%. For the same compound, the “% Conversion by 1H-NMR” value ([2]; pH 7.4, 22 h) was 0%, the “% Conversion by 1H-NMR” value ([2]; pH 7.4, 48 h) was 0% and the “% Conversion by 1H-NMR” value ([2]; pH 7.4, 216 h) was 0%.

For `CC(=O)N[C@@H]1C(=O)[C@H](O)[C@@H](CO)O[C@H]1OC/C=C(\C)CCC=C(C)C` [N-((2R,3S,5R,6R)-2-(((E)-3,7-dimethylocta-2,6-dien-1-yl)oxy)-5-hydroxy-6-(hydroxymethyl)-4-oxotetrahydro-2H-pyran-3-yl)acetamide], the “stability / geraniol release (in words)” value [2] was “generates geraniol at both pH 5.8 and pH 7.4”, the “% Conversion by 1H-NMR” value ([2]; D2O, 0 h) was 0% and the “% Conversion by 1H-NMR” value ([2]; D2O, 1.5 h) was 0%. The “% Conversion by 1H-NMR” value ([2]; D2O, 22 h) was 0%, the “% Conversion by 1H-NMR” value ([2]; D2O, 48 h) was 0% and the “% Conversion by 1H-NMR” value ([2]; D2O, 216 h) was 0%. The “% Conversion by 1H-NMR” value ([2]; pH 5.8, 0 h) was 0%, the “% Conversion by 1H-NMR” value ([2]; pH 5.8, 1.5 h) was 5% and the “% Conversion by 1H-NMR” value ([2]; pH 5.8, 22 h) was 25%. The “% Conversion by 1H-NMR” value ([2]; pH 5.8, 48 h) was 32%, the “% Conversion by 1H-NMR” value ([2]; pH 5.8, 216 h) was 39% and the “% Conversion by 1H-NMR” value ([2]; pH 7.4, 0 h) was 0%. The “% Conversion by 1H-NMR” value ([2]; pH 7.4, 1.5 h) was 5%, the “% Conversion by 1H-NMR” value ([2]; pH 7.4, 22 h) was 88% and the “% Conversion by 1H-NMR” value ([2]; pH 7.4, 48 h) was 100%. For the same compound, the “% Conversion by 1H-NMR” value ([2]; pH 7.4, 216 h) was 100% and the “rate of geraniol release compared with other ketoglycosides (in words)” value ([2]; similar conditions) was “greater than observed from geranyl-3′-keto-2′-deoxyglucopyranoside (Example 25) or geranyl-O-β-D-3′-ketoglucopyranoside (Example 17) under similar conditions”.

In the case of `CC(C)=CCC/C(C)=C/CO[C@H]1CC(=O)[C@H](O)[C@@H](CO)O1` [geranyl-3′-keto-2′-deoxyglucopyranoside, (2R,3R)-6-(((E)-3,7-dimethylocta-2,6-dien-1-yl)oxy)-3-hydroxy-2-(hydroxymethyl)tetrahydro-4H-pyran-4-one], the “stability / geraniol release (in words)” value ([3]; 32° C.) is reported as “generates geraniol at both pH 5.8 and pH 7.4”, the “% Conversion by 1H-NMR” value ([3]; D2O, 0 h) is reported as 0% and the “% Conversion by 1H-NMR” value ([3]; D2O, 1 h) is reported as 0%. For the same compound, the “% Conversion by 1H-NMR” value ([3]; D2O, 72 h) was less than 5%, the “% Conversion by 1H-NMR” value ([3]; D2O, 144 h) was less than 5% and the “% Conversion by 1H-NMR” value ([3]; pH 5.8, 0 h) was 0%. The “% Conversion by 1H-NMR” value ([3]; pH 5.8, 1 h) was 5%, the “% Conversion by 1H-NMR” value ([3]; pH 5.8, 72 h) was 32% and the “% Conversion by 1H-NMR” value ([3]; pH 5.8, 144 h) was 38%. For the same compound, the “% Conversion by 1H-NMR” value ([3]; pH 5.8, 288 h) was 47%, the “% Conversion by 1H-NMR” value ([3]; pH 7.4, 0 h) was 0% and the “% Conversion by 1H-NMR” value ([3]; pH 7.4, 1 h) was 6%. The “% Conversion by 1H-NMR” value ([3]; pH 7.4, 72 h) was 57%, the “% Conversion by 1H-NMR” value ([3]; pH 7.4, 144 h) was 88% and the “% Conversion by 1H-NMR” value ([3]; pH 7.4, 288 h) was 100%. For the same compound, the “rate of geraniol release compared with other ketoglycosides (in words)” value ([3]; similar conditions) was “greater than observed from geranyl-O-β-D-3′-ketoglucopyranoside under similar conditions”.

With `CC(C)=CCC/C(C)=C/CO[C@H]1C[C@@H](O)[C@H](O)[C@@H](CO)O1` [geranyl-O-2′-deoxyglucopyranoside, geranyl 2′-deoxy-β-D-glucopyranoside, reference compound] the “stability / geraniol release (in words)” value [3] was “remains stable at pH 7.4”, the “% Conversion by 1H-NMR” value ([3]; pH 7.4, 0 h) was 0% and the “% Conversion by 1H-NMR” value ([3]; pH 7.4, 1 h) was 0%. The “% Conversion by 1H-NMR” value ([3]; pH 7.4, 72 h) was 0%, the “% Conversion by 1H-NMR” value ([3]; pH 7.4, 144 h) was 0% and the “% Conversion by 1H-NMR” value ([3]; pH 7.4, 288 h) was 0%.

With `CO[C@H]1O[C@H](CO)[C@@H](O)C(=O)[C@@H]1O` [methyl-O-α-D-3′-ketomannopyranoside, (2R,3R,5R,6S)-3,5-dihydroxy-2-(hydroxy-methyl)-6-methoxytetrahydro-4H-pyran-4-one] the “stability / methanol release (in words)” value ([4]; 4.2 mg/mL) was “generates methanol at both pH 5.8 and pH 7.4”, the “% Conversion by 1H-NMR” value ([4]; D2O, 0 h) was 0% and the “% Conversion by 1H-NMR” value ([4]; D2O, 22 h) was 0%. For the same compound, the “% Conversion by 1H-NMR” value ([4]; pH 5.8, 0 h) was 0%, the “% Conversion by 1H-NMR” value ([4]; pH 5.8, 22 h) was 71% and the “% Conversion by 1H-NMR” value ([4]; pH 5.8, 96 h) was 78%. The “% Conversion by 1H-NMR” value ([4]; pH 5.8, 192 h) was 78%, the “% Conversion by 1H-NMR” value ([4]; pH 7.4, 0 h) was 0% and the “% Conversion by 1H-NMR” value ([4]; pH 7.4, 22 h) was 54%. For the same compound, the “% Conversion by 1H-NMR” value ([4]; pH 7.4, 96 h) was 74% and the “% Conversion by 1H-NMR” value ([4]; pH 7.4, 192 h) was 88%.

In the case of `CO[C@H]1O[C@H](CO)[C@@H](O)[C@H](O)[C@@H]1O` [methyl-O-α-D-mannopyranoside, (2R,3S,4S,5S,6S)-2-(hydroxymethyl)-6-methoxytetrahydro-2H-pyran-3,4,5-triol], the “stability / methanol release (in words)” value ([4]; 32° C.) is reported as “remains stable at pH 7.4 and in water”, the “% Conversion by 1H-NMR” value ([4]; D2O, 0 h) is reported as 0% and the “% Conversion by 1H-NMR” value ([4]; D2O, 22 h) is reported as 0%. For the same compound, the “% Conversion by 1H-NMR” value ([4]; D2O, 96 h) was 0%, the “% Conversion by 1H-NMR” value ([4]; pH 7.4, 0 h) was 0% and the “% Conversion by 1H-NMR” value ([4]; pH 7.4, 22 h) was 0%. The “% Conversion by 1H-NMR” value ([4]; pH 7.4, 96 h) was 0% and the “% Conversion by 1H-NMR” value ([4]; pH 7.4, 192 h) was 0%.

Source: patent US12509482B2, “3′-ketoglycoside compound for the slow release of a volatile alcohol” (GLYCOSCIENCE, S.L., priority 2020, dated 2025)
